In patent US20050187152A1, “Prevention and treatment of hypergastrinemia” (Aphton Corporation, priority 1998, published 2005):
Each block holds one compound with its values, some of them ahead of it. Where no end group is shown, it is not given here.

Legend:
[1] = tested on: plasma gastrin; settings: cited from earlier work
[2] = tested on: plasma gastrin; settings: cited from earlier work; remark: listed apart in the source
[3] = tested on: plasma gastrin; settings: 400 μmol/kg, 14 mg/kg, 10 weeks; cited from earlier work
[4] = tested on: crypts and tumors of the small and large intestine; assay: Bromodeoxyuridine in situ proliferation index in Min mice; format: in vivo, mouse; settings: hypergastrinemic mice
Procedure: One hour prior to termination, mice were injected with DNA analogue bromodeoxyuridine in order to determine the comparative in situ proliferation activity. The samples were formalin fixed, paraffin embedded, sections were cut and stained with an anti-bromodeoxyuridine antibody.
Serum gastrin level was measured by RIA. Prior to end of treatment, proliferative index was determined by the bromodeoxyuridine method. • Group 1.

[5] = tested on: Min mouse model of familial adenomatous polyposis
Procedure: Accordingly, the effect of gastrin neutralization on Min mouse survival was determined.
The Min mice used in the study were bred within the Academic Unit of Cancer Studies at Nottingham University (U.K.) on a C57/BL background. […] The Min positive mice were then placed into each arm of the therapy on an ongoing basis.
Gastrin neutralization was achieved by using an immunogen, i.e. the gastrin immunogen preparation, which is composed of the amino terminal domain of gastrin-17 linked, via an amino acid spacer, to diphtheria toxoid which acts as the immunogenic carrier. The antibodies raised by virtue of the design of the immunogen, cross-react with both amidated and glycine-extended gastrin-17, known proliferative forms of gastrin. Min mice were immunized s.c. with the hG17-DT immunogen (100 mg/mouse) at week 4, with subsequent injections at 3 weekly intervals. […] The hG17-DT immunogen was administered to mice at 4 weeks of age to examine its effect on mice with an established tumor burden.
• Group 1. OME 75 mg/kg daily oral treatment • Group 2. OME+GSI 100 mg oral dose/mouse day 0 and every 3 weeks • Group 3. Oral vehicle+control immunogen • Group 4. Oral vehicle−control immunogen

[6] = biological target: rabbit anti-G17 (C-terminal) antiserum; assay: Displacement of radiolabelled G17 from C-terminal specific antiserum; format: binding; settings: antiserum 100 μg/ml on solid phase, radiolabelled G17 100 pg/ml; FIG. 12
Procedure: (§1) Antisera were absorbed onto a solid phase at a concentration of 100 μg/ml and displacement was determined in a competitive assay with a fixed concentration of radiolabelled G17 (100 pg/ml) and increasing concentrations of unlabelled ligands (1-25,000 pg/ml).

[7] = biological target: rabbit anti-human G17(1-9):DT (N-terminal) antiserum; assay: Displacement of radiolabelled G17 from N-terminal specific antiserum; format: binding; settings: antiserum 100 μg/ml on solid phase, radiolabelled G17 100 pg/ml; FIG. 11
Procedure: as §1

[8] = tested on: polypoid carcinomas from the large and small intestine of Min mice; assay: In vitro proliferation of Min mouse polypoid carcinomas, tetrazolium-based colorimetric assay; format: cell-based
Procedure: Polypoid carcinomas have been established in vitro from the large and small intestine of Min mice. Proliferation was assessed by a tetrazolium-based colorimetric ELISA assay.

[9] = patients receiving 40 mg daily for eight years
[10] = same dose (400 μmol/kg, 14 mg/kg)

Compound: COc1ccc2[nH]c([S+]([O-])Cc3ncc(C)c(OC)c3C)nc2c1 (centres unmarked) [omeprazole]
markedly elevated gastrin levels ([1]; occasionally, long term treatment, 20-60 mg/day): 10 fold
prevalence of micronodular hyperplasia in atrophic gastritis [1, 9]: 48%
prevalence of micronodular hyperplasia in interstitial gastritis [1, 9]: 19.6%
prevalence of micronodular hyperplasia in superficial corpus gastritis [1, 9]: 3.6%
increase in gastrin compared to controls ([2]; female rats, long-term (1-year) daily 400 μmol/kg, 14 mg/kg): 15 fold
ECL cell density increase [2, 10]: about 300%
increase of gastrin levels [2, 10]: 10 fold
ECL density increase at the end of treatment [3]: 37%
increase in plasma gastrin during treatment [3]: threefold
stomach weight increase at the end of treatment [3]: 34%
proliferating cells, normal colonic mucosa ([4]; increased from 9.46%, p<0.05 Mann-Whitney): 20.1%
proliferating cells, colonic neoplasia ([4]; increased from 22.3%, p<0.01): 35.0%
50% survival ([5]; Example 2, OME 75 mg/kg daily oral, control group 16 weeks, p=0.0001 log rank): 8 weeks
effect of omeprazole-induced hypergastrinemia on survival of Min mice ([5]; high daily doses of omeprazole): decreases the survival
median survival ([5]; omeprazole-induced hypergastrinemia, reduced from approximately 10 weeks): ~6 weeks

50% inhibitory concentration (IC50), displacement of radiolabelled G17 [6]: 0.8 ng/mL
50% inhibitory concentration (IC50), displacement of radiolabelled G17 [7]: 3.5 ng/mL
Compound: G17: gastrin-17, unlabelled ligand in the displacement assay [Peptide G17]

IC25, displacement of radiolabelled G17 [6]: 0.5 ng/mL
Compound: G34: gastrin-34, unlabelled ligand in the displacement assay (QLGPQGPPHLVADPSKKQGPWLEEEEEAYGWMDF; ends and bridges not checked; UniProt P01350 59-92, looked up) [Peptide G34]

Compound: amidated gastrin: amidated gastrin added to Min mouse tumor cultures (QGPWLEEEEEAYGWMDF-NH2; ends and bridges not checked; UniProt P01350 76-92, looked up)
proliferation of large intestinal tumor in vitro [8]: not increased
proliferation of small intestinal tumor in vitro [8]: not increased
